Test results reported in patent US12227490B2, “Cereblon binding compounds, compositions thereof, and methods of treatment therewith” (Celgene Corporation, priority 2020, dated 2025).
Where a name gives a salt, the structure may show the parent alone.

Biological target: T1, AR (androgen receptor) protein in VCaP cells (Homo sapiens, UniProt P10275)
T1 construct: endogenous in cells; host or cells: VCaP cells
T1 sequence (P10275 1-920): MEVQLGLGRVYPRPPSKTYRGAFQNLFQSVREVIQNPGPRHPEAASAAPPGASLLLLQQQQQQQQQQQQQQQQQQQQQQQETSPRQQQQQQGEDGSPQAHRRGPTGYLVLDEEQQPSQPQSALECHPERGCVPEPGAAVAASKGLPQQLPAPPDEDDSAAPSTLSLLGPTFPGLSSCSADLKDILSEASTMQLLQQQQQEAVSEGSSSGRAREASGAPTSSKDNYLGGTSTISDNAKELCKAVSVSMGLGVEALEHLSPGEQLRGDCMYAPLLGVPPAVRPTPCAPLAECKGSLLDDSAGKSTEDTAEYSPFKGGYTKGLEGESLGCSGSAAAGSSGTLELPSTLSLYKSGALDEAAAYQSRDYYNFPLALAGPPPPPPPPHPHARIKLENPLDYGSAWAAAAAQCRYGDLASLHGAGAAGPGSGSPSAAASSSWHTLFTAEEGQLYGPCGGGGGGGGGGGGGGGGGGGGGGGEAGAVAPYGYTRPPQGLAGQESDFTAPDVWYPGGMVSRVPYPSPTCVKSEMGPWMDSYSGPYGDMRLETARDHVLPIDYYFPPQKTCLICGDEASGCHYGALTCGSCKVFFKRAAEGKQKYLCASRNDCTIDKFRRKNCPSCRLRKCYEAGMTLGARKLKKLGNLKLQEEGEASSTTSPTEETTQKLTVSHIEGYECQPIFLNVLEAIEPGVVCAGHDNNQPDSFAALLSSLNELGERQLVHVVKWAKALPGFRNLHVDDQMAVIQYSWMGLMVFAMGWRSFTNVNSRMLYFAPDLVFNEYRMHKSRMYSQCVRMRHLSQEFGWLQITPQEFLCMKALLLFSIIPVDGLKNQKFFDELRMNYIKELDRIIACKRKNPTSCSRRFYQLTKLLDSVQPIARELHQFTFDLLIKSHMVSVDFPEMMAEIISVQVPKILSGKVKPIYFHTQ
Experiment: VCAP AR Degradation Assay
Format: cell-based
Conditions: 24 h, AR ELISA; for DC50: concentration of compound when AR level = 50% of DMSO control; for remaining activity at up to 5 µM: top concentration 5 μM, read-out: Y (lowest measured AR level normalized to DMSO control, AR degradation efficiency)
Method: VCAP AR Degradation Assay. Test compounds were pre-dispensed into a Corning CellBind 96-well clear bottom plate (Cat #3300) using an acoustic dispenser to make a 10-point concentration series at 1:3 dilution for each compound. The final top concentration of each compound was 5 μM. DMSO at a final concentration of 0.1% was used as a control. VCaP cells cultured in DMEM with 8% fetal bovine serum (FBS) were seeded at 50K cells per well in a 200 μL volume into the compound plate and incubated at 37° C. in a CO2 incubator for 24 h. The medium was carefully removed from the cells and the plate was placed on ice. One hundred μL of ice-cold 1× cell lysis buffer from Cell Signaling Technologies (Cat #9803) was added to each well of the cells and the plate was incubated at 4° C. on a shaker for 1 h. Fifteen μL of cell lysate was used for AR ELISA detection using a PathScan Total Sandwich AR ELISA kit (Cell Signaling Technology, Cat #12580). AR levels in compound-treated wells were normalized to that of DMSO control and expressed as percent of control (PoC) (y). A Four Parameter Logistic Model (Sigmoidal Dose-Response Model) was used to determine the compound's DC50, and EC50, using the following equation: y=(A+((B−A)/(1+((C/x)^D)))) • A=YMin (lowest AR level normalized to DMSO control in response to compound treatment, as determined by curve fit) • B=YMax (maximum AR level as determined by curve fit) • C=EC50 • D=Hill Slope • x=compound concentration • EC50=the concentration of compound when y=(YMax−YMin)/2 • DC50=the concentration of the compound when y=50% of DMSO control (50% AR degradation) • y=AR protein level normalized to DMSO control
The lowest measured AR level normalized to DMSO control in response to compound treatment, termed Y value, was used to characterize the compound-mediated AR degradation efficiency.

| SMILES | DC50 [nM] | remaining activity at up to 5 µM [%] |
| --- | --- | --- |
| C[C@@H]1CN(CCC[C@H]2CC[C@H](N3C(=S)N(c4cnc(C#N)c(C(F)(F)F)c4)C(=O)C3(C)C)CC2)C[C@H](C)N1CC(=O)Nc1cccc2c(C3CCC(=O)NC3=O)nn(C)c12 (stereo partly drawn) [Cmpd 9, 2-((2R,6S)-4-(3-(trans-4-(3-(6-Cyano-5-(trifluoromethyl)pyridin-3-yl)-5,5-dimethyl-4-oxo-2-thioxoimidazolidin-1-yl)cyclohexyl)propyl)-2,6-dimethylpiperazin-1-yl)-N-(3-(2,6-dioxopiperidin-3-yl)-1-methyl-1H-indazol-7-yl)acetamide] | 2 to 5 | 25 to 30 |
| Cn1nc(C2CCC(=O)NC2=O)c2cccc(NC(=O)CN3CCN(CCCO[C@H]4CC[C@H](N5C(=S)N(c6cnc(C#N)c(C(F)(F)F)c6)C(=O)C5(C)C)CC4)C[C@@H]3C(F)(F)F)c21 (stereo partly drawn) [Cmpd 20, 2-((R)-4-(3-(((trans)-4-(3-(6-Cyano-5-(trifluoromethyl)pyridin-3-yl)-5,5-dimethyl-4-oxo-2-thioxoimidazolidin-1-yl)cyclohexyl)oxy)propyl)-2-(trifluoromethyl)piperazin-1-yl)-N-(3-(2,6-dioxopiperidin-3-yl)-1-methyl-1H-indazol-7-yl)acetamide] | 2 to 5 | 0 to 25 |
| C[C@@H]1CN(CCO[C@H]2CC[C@H](N3C(=S)N(c4ccc(C#N)c(C(F)(F)F)c4)C(=O)C3(C)C)CC2)C[C@H](C)N1CC(=O)Nc1cccc2c(C3CCC(=O)NC3=O)nn(C)c12 (stereo partly drawn) [Cmpd 1, 2-((2S,6R)-4-(2-((trans-4-(3-(4-Cyano-3-(trifluoromethyl)phenyl)-5,5-dimethyl-4-oxo-2-thioxoimidazolidin-1-yl)cyclohexyl)oxy)ethyl)-2,6-dimethylpiperazin-1-yl)-N-(3-(2,6-dioxopiperidin-3-yl)-1-methyl-1H-indazol-7-yl)acetamide hydrochloride] | < 2 | 0 to 25 |
| C[C@@H]1CN(CCC[C@H]2CC[C@H](N3C(=S)N(c4ccc(C#N)c(C(F)(F)F)c4)C(=O)C3(C)C)CC2)C[C@H](C)N1CC(=O)Nc1cccc2c(C3CCC(=O)NC3=O)nn(C)c12 (stereo partly drawn) [Cmpd 2, 2-((2R,6S)-4-(3-(trans-4-(3-(4-cyano-3-(trifluoromethyl)phenyl)-5,5-dimethyl-4-oxo-2-thioxoimidazolidin-1-yl)cyclohexyl)propyl)-2,6-dimethylpiperazin-1-yl)-N-(3-(2,6-dioxopiperidin-3-yl)-1-methyl-1H-indazol-7-yl)acetamide hydrochloride] | 2 to 5 | 30 to 50 |
| C[C@@H]1C[C@H](OCCC[C@H]2CC[C@H](N3C(=S)N(c4ccc(C#N)c(C(F)(F)F)c4)C(=O)C3(C)C)CC2)C[C@H](C)N1CC(=O)Nc1cccc2c(C3CCC(=O)NC3=O)nn(C)c12 (stereo partly drawn) [Cmpd 23, 2-((2R,4r,6S)-4-(3-((trans)-4-(3-(4-Cyano-3-(trifluoromethyl)phenyl)-5,5-dimethyl-4-oxo-2-thioxoimidazolidin-1-yl)cyclohexyl)propoxy)-2,6-dimethylpiperidin-1-yl)-N-(3-(2,6-dioxopiperidin-3-yl)-1-methyl-1H-indazol-7-yl)acetamide] | 20 to 100 | 0 to 25 |
| C[C@@H]1CN(CCCC[C@H]2CC[C@H](N3C(=S)N(c4ccc(C#N)c(C(F)(F)F)c4)C(=O)C3(C)C)CC2)C[C@H](C)N1CC(=O)Nc1cccc2c(C3CCC(=O)NC3=O)nn(C)c12 (stereo partly drawn) [Cmpd 19, 2-((2S,6R)-4-(4-((trans)-4-(3-(4-Cyano-3-(trifluoromethyl)phenyl)-5,5-dimethyl-4-oxo-2-thioxoimidazolidin-1-yl)cyclohexyl)butyl)-2,6-dimethylpiperazin-1-yl)-N-(3-(2,6-dioxopiperidin-3-yl)-1-methyl-1H-indazol-7-yl)acetamide] | 2 to 5 | 0 to 25 |
